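A five-concentration, 48-hour dose response in 96-well plates underlies each endpoint, interpolated linearly between surrounding concentrations. GI50 is the concentration that inhibits growth by half.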 The source made the active and inactive calls. Rule as the data show it: active = GI50 up to about 1.1 µM and inactive = higher. Some results are limits rather than exact numbers.

Holding throughout (assay): DTP human tumour cell line panel, 48 h
Experiment [1] has as its system NCI-H460.
The test system of experiment [2] is A498.
In experiment [3] the test system is OVCAR-3.
Experiment [4] relates to Malme-3M.
For experiment [5], the system named is HL-60.
Experiment [6] deals with EKVX.
Experiment [7] deals with SF-268.
For experiment [8], the system named is SK-OV-3.
Experiment [9] relates to NCI-H226.
The test system of experiment [10] is RPMI-8226.
The subject of experiment [11] is SK-MEL-28.
The subject of experiment [12] is ACHN.
Experiment [13] concerns LOX IMVI.
The test system of experiment [14] is UACC-257.
Experiment [15] deals with M14.
Experiment [16] has as its system HOP-62.
Experiment [17] deals with HCC 2998.
The test system of experiment [18] is SK-MEL-5.
Experiment [19] relates to OVCAR-5.

As for `CCN1C(=O)N(C)C(O)c2c1nc1ccccn1c2=O` (configuration not stated), the GI50 – broadly, the concentration that inhibits growth by half – in [1] was 20.6 µM (inactive); in experiment [2], 25.6 µM (inactive); in experiment [3] it was 26.1 µM (inactive); in experiment [4], 38.6 µM (inactive); in experiment [5], 24.9 µM (inactive); in [6] it was 21.2 µM (inactive). For the same compound, the GI50 in experiment [7] is 25.4 µM (inactive); in [8], 26.1 µM (inactive); in [9], 60.7 µM (inactive); in [10] it was 27 µM (inactive); in experiment [11], 27.4 µM (inactive); in experiment [12], 0.232 µM (active). For the same compound, the GI50 in experiment [13] is 17.5 µM (inactive); in [14], 40.1 µM (inactive); in experiment [15], 32.1 µM (inactive); in experiment [16], 28.1 µM (inactive); in [17], 20.3 µM (inactive).

Consider `O=C1CC(c2c(-c3ccccc3)[nH]c3ccccc23)C(=O)N1c1ccccc1` (configuration not stated), for which the GI50 in experiment [1] is 56.2 µM (inactive); in [2] it was > 100 µM (inactive); in experiment [3] it was 61.5 µM (inactive); in [4], > 100 µM (inactive); in experiment [5], 44.6 µM (inactive); in experiment [6], > 100 µM (inactive). Besides, the GI50 in experiment [8] is > 100 µM (inactive); in experiment [9], > 100 µM (inactive); in experiment [10] it was 37.6 µM (inactive); in [18], 56.8 µM (inactive); in experiment [19] it was > 100 µM (inactive); in experiment [11] it was > 100 µM (inactive). Further, the GI50 in experiment [12] is 40.5 µM (inactive); in experiment [14] it was > 100 µM (inactive); in [15] it was > 100 µM (inactive); in experiment [16], 25.6 µM (inactive); in [17] it was > 100 µM (inactive).

As for `Cc1cc2c(cc1C)[n+]([O-])c(C(=O)C/C(=N/OCCCc1ccccc1)C(=O)Nc1cc(Cl)ccc1Cl)c(C)[n+]2[O-]`, the GI50 in experiment [1], in experiment [2], in experiment [3], in experiment [4], in experiment [5] and in [6] was > 100 µM (inactive) in each case. The GI50 in experiment [7], in experiment [8], in [9], in experiment [18], in [19] and in experiment [11] was > 100 µM (inactive) throughout. The GI50 in experiment [12], in experiment [13], in experiment [14], in [15], in [16] and in [17] was > 100 µM (inactive) each time.

Turning to `NNC(=S)N/N=C/C(Cl)=C(\Cl)C(=O)O`, the GI50 in experiment [1], in [2], in experiment [3], in experiment [4], in experiment [5] and in experiment [6] was > 100 µM (inactive) throughout. Moreover, the GI50 in [7], in experiment [9], in experiment [10], in [18], in experiment [19] and in experiment [11] was > 100 µM (inactive) throughout. For the same compound, the GI50 in [12], in [13], in [14], in experiment [15] and in experiment [17] was > 100 µM (inactive) throughout.

On to `CCOC(=O)C1=C(C)N(NC(=O)Nc2ccccc2)C2(N)N(NC(=O)Nc3ccccc3)C(C)=C(C(=O)OCC)C12C(=O)OCC` (configuration not stated), for which the GI50 in experiment [1] is 37.9 µM (inactive); in experiment [2] it was 28.2 µM (inactive); in experiment [3], 49.2 µM (inactive); in experiment [4] it was 33 µM (inactive); in experiment [5] it was 35.2 µM (inactive); in [6], > 100 µM (inactive). For the same compound, the GI50 in experiment [7] is 24.8 µM (inactive); in experiment [8] it was 29.9 µM (inactive); in experiment [10], > 100 µM (inactive); in experiment [18], 35.1 µM (inactive); in experiment [19], > 100 µM (inactive); in experiment [11], 34.4 µM (inactive). Besides, the GI50 is 56.4 µM (inactive) in experiment [12]; 36.2 µM (inactive) in experiment [13]; 67.3 µM (inactive) in experiment [14]; 33.2 µM (inactive) in experiment [15]; 28.6 µM (inactive) in [16]; 27.4 µM (inactive) in experiment [17].

In the case of `COc1ccc2c(c1OC)C(C=C(c1ccccc1)c1ccccc1)CN(C)C2` (configuration not stated), the GI50 was 11.7 µM (inactive) in experiment [1]; 17 µM (inactive) in experiment [2]; 12.8 µM (inactive) in experiment [3]; 20.2 µM (inactive) in experiment [4]; 35.3 µM (inactive) in experiment [6]; 27.1 µM (inactive) in [7]. The GI50 was 27.4 µM (inactive) in experiment [8]; 22.6 µM (inactive) in [9]; 18.2 µM (inactive) in experiment [10]; 15.8 µM (inactive) in [18]; 6.79 µM (inactive) in experiment [19]; 22.4 µM (inactive) in experiment [11]. For the same compound, the GI50 in experiment [12] is 24.4 µM (inactive); in [14], 21.8 µM (inactive); in experiment [15] it was 14.5 µM (inactive); in experiment [16], 20.6 µM (inactive); in experiment [17], 24.9 µM (inactive).

In the case of `COC1OC(CBr)C(OC(=O)c2ccccc2)C(OS(=O)(=O)c2ccc(C)cc2)C1Br` (configuration not stated), the GI50 in [1], in experiment [2], in experiment [3], in [4], in [5] and in experiment [6] was > 100 µM (inactive) throughout. For the same compound, the GI50 in experiment [7] was > 100 µM (inactive); in [8], > 10 µM (inactive); in [10], > 100 µM (inactive); in experiment [11] it was > 100 µM (inactive); in experiment [12], > 100 µM (inactive); in experiment [13] it was > 100 µM (inactive). In addition, the GI50 in experiment [14], in experiment [15], in experiment [16] and in [17] was > 100 µM (inactive) each time.

Turning to `COc1ccc(C(=O)C(C(=O)CCC(=O)Nc2cccc(Cl)c2)c2ccc(OC)cc2)cc1` (configuration not stated), the GI50 in experiment [1], in experiment [2], in experiment [3], in experiment [4], in experiment [5] and in experiment [6] was > 100 µM (inactive) in each case. Also, the GI50 in [7] is > 100 µM (inactive); in [8] it was > 100 µM (inactive); in experiment [9], > 100 µM (inactive); in experiment [10], > 100 µM (inactive); in experiment [18] it was > 100 µM (inactive); in experiment [19], 9.42 µM (inactive). Besides, the GI50 in experiment [11], in experiment [12], in experiment [14], in [15], in experiment [16] and in [17] was > 100 µM (inactive) each time.

Consider `CCCCCCCCCCCCCCCCc1c(O)nc(NN)nc1C(=O)OC`, for which the GI50 in experiment [1], in [2], in experiment [3], in experiment [4], in experiment [5] and in experiment [6] was > 50 µM (inactive) each time. For the same compound, the GI50 in experiment [7], in experiment [8], in [10], in [18], in experiment [19] and in experiment [11] was > 50 µM (inactive) each time. The GI50 in experiment [12], in experiment [13], in experiment [14], in [15], in [16] and in [17] was > 50 µM (inactive) throughout.

In the case of `Nc1nc(O)c2nc(N)n(Cc3ccccc3)c2n1`, the GI50 in experiment [1], in experiment [2], in experiment [3], in [4], in experiment [5] and in experiment [6] was > 100 µM (inactive) in each case. Moreover, the GI50 in experiment [7], in experiment [8], in [10], in experiment [18], in [19] and in experiment [11] was > 100 µM (inactive) in each case. In addition, the GI50 in experiment [12], in experiment [13], in experiment [14], in experiment [15], in experiment [16] and in [17] was > 100 µM (inactive) throughout.

As to `Cn1cccc1/C=C/c1cc(Br)c(/C=C/c2cccn2C)cc1Br`, the GI50 in experiment [1] was 17.9 µM (inactive); in [2], 21 µM (inactive); in experiment [3], 16.1 µM (inactive); in experiment [4], 10.4 µM (inactive); in experiment [5], 13.6 µM (inactive); in [6], 11.1 µM (inactive). The GI50 was 20.5 µM (inactive) in [7]; 14.8 µM (inactive) in [8]; 12.3 µM (inactive) in experiment [9]; 15.2 µM (inactive) in [10]; 15.2 µM (inactive) in [18]; 16.8 µM (inactive) in [19]. Also, the GI50 in experiment [11] is 15.5 µM (inactive); in experiment [12], 10.2 µM (inactive); in experiment [13] it was 18.3 µM (inactive); in experiment [14], 30.6 µM (inactive); in experiment [15], 19 µM (inactive); in experiment [17] it was 2.62 µM (inactive).
